Data taken from patent publication US20250002486A1, “CYCLIC SULFONAMIDE RIBONUCLEOTIDE REDUCTASE (RNR) INHIBITORS AND USES THEREOF” (Boundless Bio, Inc., priority 2021, published 2025).
pIC50: −log10 of the molar value.

What was measured:
[1] = system: pCHK1 (S345) in Colo320 DM cells; test: Alphalisa assay: pCHK1 (S345) detection in Colo320 DM cells; format: cell-based, human; details: Homo sapiens, COLO 320DM, compound incubation overnight (approximately 16 hours), pCHK1 (S345) AlphaLisa Sure Fire kit
Procedure: Colo320 DM cells (ATCC #CCL-220, derived from human colorectal adenocarcinoma, Dukes' type C) were seeded on a 96-well, cell culture treated assay plate at a density of 50,000 cells/well in 200 μL of RPMI-1640 media supplemented with 10% Fetal Bovine Serum and incubated at 37 degrees Celsius overnight. The following day, test compound dilutions were added directly to the plated cells by a Tecan digital dispenser to a final DMSO concentration of <0.5%. and incubated at 37 degrees Celsius overnight (approximately 16 hours). The following day all cull culture media was removed from the cells. 75 μL of 1× AlphaLisa lysis buffer was added to each well and plates were agitated on a shaker for 30 minutes at room temperature. The lysis of cells and detection of pCHK1 (S345) were performed with regents contained within the AlphaLisa Sure Fire assay kit (Perkin Elmer #ALSU-PCHK1-A) according to the manufacturer's instructions. 10 μL of each lysate was then transferred to a white, 384-well assay plate (Perkin Elmer #6008280). 5 μL of Acceptor mix was then added to each well of lysate in the white, 384-well assay plate and incubated in the dark at room temperature for 60 minutes. 5 μL of Donor mix was then added to each well of the white, 384-well assay plate in subdued light and incubated at room temperature for 60 minutes. Plates were read on an Alpha Technology-compatible plate reader using standard AlphaLisa settings.

RNR (RNR1:RNR2 1:1) = RNR (RNR1:RNR2 1:1) (Homo sapiens (Human), UniProt P23921); test: RNR enzyme activity, rapid-fire mass spectrometry (RF/MS) assay; format: biochemical; details: RNR 50 nM, 1:1 RNR1:RNR2; CDP 5 μM, ATP 1 mM; 37° C., 45 min; compounds screened up to 50 μM
Sequence of RNR (RNR1:RNR2 1:1) (P23921 whole entry): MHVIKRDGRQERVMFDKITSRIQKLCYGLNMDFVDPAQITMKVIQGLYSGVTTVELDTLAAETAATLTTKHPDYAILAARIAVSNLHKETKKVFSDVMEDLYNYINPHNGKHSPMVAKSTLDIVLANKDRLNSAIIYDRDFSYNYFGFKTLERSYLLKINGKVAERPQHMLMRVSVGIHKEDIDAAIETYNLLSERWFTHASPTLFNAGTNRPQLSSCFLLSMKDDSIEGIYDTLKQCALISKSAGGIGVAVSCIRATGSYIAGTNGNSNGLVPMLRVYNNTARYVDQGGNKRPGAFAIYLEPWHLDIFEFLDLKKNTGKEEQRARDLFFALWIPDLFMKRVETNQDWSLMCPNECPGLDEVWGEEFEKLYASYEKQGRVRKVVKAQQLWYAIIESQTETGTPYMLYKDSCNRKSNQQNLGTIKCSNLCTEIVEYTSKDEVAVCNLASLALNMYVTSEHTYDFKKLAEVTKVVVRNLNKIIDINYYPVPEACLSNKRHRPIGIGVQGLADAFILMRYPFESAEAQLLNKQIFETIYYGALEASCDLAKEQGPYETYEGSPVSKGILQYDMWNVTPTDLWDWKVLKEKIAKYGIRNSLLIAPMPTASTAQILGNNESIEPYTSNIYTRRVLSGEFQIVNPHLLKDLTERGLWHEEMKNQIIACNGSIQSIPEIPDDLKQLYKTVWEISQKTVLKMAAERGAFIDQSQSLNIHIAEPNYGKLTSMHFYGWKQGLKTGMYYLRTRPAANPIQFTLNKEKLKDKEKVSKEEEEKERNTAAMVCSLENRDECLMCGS
Procedure: A rapid-fire mass spectrometry (RF/MS) assay was used to assess RNR enzyme activity using a 384 well plate and a robotic platform.
The plate layout included two validated reference compounds (Triapine (3-AP) and Hydroxyurea (HU)): • A dose response in duplicate; top concentration: 5 μM (3-AP) and 250 μM (HU), semi-log • dilutions. • Spike wells in triplicate randomly spotted at four concentrations: • 250 μM, 100 μM, 30 μM and 2 μM for HU • 5 μM, 2 μM, 0.6 μM and 0.04 μM for 3-AP
First, the multidrop pipes were saturated for 30 minutes with enzymatic solution. Then 30 μL of Stop solution was distributed in column 24. Next, 15 μL of enzyme was distributed in column 1 to 24. Next, a pre-incubation step of 15 minutes at room temperature occurred, followed by distribution of 15 μL of substrate solution (column 1 to 24). Next, the plate was incubated for 45 minutes at 37° C. 30 μL of Stop solution was distributed to columns 1 to 23.
The final parameters for the enzyme reactions were: • Incubation: 37° C., 45 min • [CDP]: 5 μM; [ATP]: 1 mM; [NADPH]: No • [RNR]final: 50 nM with 1:1 (RNR1:RNR2) ratio • Final volume: 30 μL • Stop solution: 6% HCOOH containing 2 μM of 15

SMILES	pIC50 [1]	pIC50 (RNR (RNR1:RNR2 1:1))
Cc1ccc(F)c([C@@H](C)[C@@H](c2n[nH]c(=O)o2)N2CC(O)c3cc(Cl)ccc3S2(=O)=O)c1C (stereo partly drawn) [Example 19, 5-((1S,2R)-1-(6-chloro-4-hydroxy-1,1-dioxido-3,4-dihydro-2H-benzo[e][1,2]thiazin-2-yl)-2-(6-fluoro-2,3-dimethylphenyl)propyl)-1,3,4-oxadiazol-2(3H)-one]	4.30 to 5.00	6.00 to 7.00
Cc1ccc(F)c(C(C)[C@@H](c2n[nH]c(=O)o2)N2CC(C)c3cc(Cl)ccc3S2(=O)=O)c1C (stereo partly drawn) [Example 20, 5-((1S)-1-(6-chloro-4-methyl-1,1-dioxido-3,4-dihydro-2H-benzo[e][1,2]thiazin-2-yl)-2-(6-fluoro-2,3-dimethylphenyl)propyl)-1,3,4-oxadiazol-2(3H)-one]	≥ 5.30	≥ 7.00
Cc1ccc(F)c(C(C)[C@@H](c2n[nH]c(=O)o2)N2CC(C)(C)c3cc(Cl)ccc3S2(=O)=O)c1C (stereo partly drawn) [Example 21, 5-((1S)-1-(6-chloro-4,4-dimethyl-1,1-dioxido-3,4-dihydro-2H-benzo[e][1,2]thiazin-2-yl)-2-(6-fluoro-2,3-dimethylphenyl)propyl)-1,3,4-oxadiazol-2(3H)-one]	< 4.30	5.00 to 6.00
Cc1ccc(F)c([C@@H](C)[C@@H](c2n[nH]c(=O)o2)N2CC(F)(F)c3cc(Cl)ccc3S2(=O)=O)c1C [Example 22, 5-((1S,2R)-1-(6-chloro-4,4-difluoro-1,1-dioxido-3,4-dihydro-2H-benzo[e][1,2]thiazin-2-yl)-2-(6-fluoro-2,3-dimethylphenyl)propyl)-1,3,4-oxadiazol-2(3H)-one]	5.00 to 5.30	6.00 to 7.00
Cc1ccc(F)c([C@@H](C)[C@@H](c2n[nH]c(=O)o2)N2CCc3c(Cl)cccc3S2(=O)=O)c1C [Example 23, 5-((1S,2R)-1-(5-chloro-1,1-dioxido-3,4-dihydro-2H-benzo[e][1,2]thiazin-2-yl)-2-(6-fluoro-2,3-dimethylphenyl)propyl)-1,3,4-oxadiazol-2(3H)-one]	4.30 to 5.00	6.00 to 7.00
Cc1ccc(F)c([C@@H](C)[C@@H](c2n[nH]c(=O)o2)N2CCc3nc(Cl)ccc3S2(=O)=O)c1C [Example 24, 5-((1S,2R)-1-(6-chloro-1,1-dioxido-3,4-dihydro-2H-pyrido[2,3-e] [1,2]thiazin-2-yl)-2-(6-fluoro-2,3-dimethylphenyl)propyl)-1,3,4-oxadiazol-2(3H)-one]	≥ 5.30	≥ 7.00
Cc1ccc(F)c([C@@H](C)[C@@H](c2n[nH]c(=O)o2)N2CC(C)(O)c3cc(Cl)ccc3S2(=O)=O)c1C (stereo partly drawn) [Example 25, 5-((1S,2R)-1-(6-chloro-4-hydroxy-4-methyl-1,1-dioxido-3,4-dihydro-2H-benzo[e][1,2]thiazin-2-yl)-2-(6-fluoro-2,3-dimethylphenyl)propyl)-1,3,4-oxadiazol-2(3H)-one]	4.30 to 5.00	≥ 7.00
Cc1ccc(F)c(C(C)[C@@H](c2n[nH]c(=O)o2)N2C[C@H](O)[C@H](O)c3cc(Cl)ccc3S2(=O)=O)c1C (stereo partly drawn) [Example 26, 5-((1S)-1-((4S, 5R)-7-chloro-4,5-dihydroxy-1,1-dioxido-4,5-dihydrobenzo [f][1,2]thiazepin-2(3H)-yl)-2-(6-fluoro-2,3-dimethylphenyl)propyl)-1,3,4-oxadiazol-2(3H)-one]	4.30 to 5.00	≥ 7.00
Cc1ccc(F)c([C@@H](C)[C@@H](c2n[nH]c(=O)o2)N2CCc3cc(Cl)ncc3S2(=O)=O)c1C [Example 27, 5-((1S,2R)-1-(6-chloro-1,1-dioxido-3,4-dihydro-2H-pyrido[4,3-e] [1,2]thiazin-2-yl)-2-(6-fluoro-2,3-dimethylphenyl)propyl)-1,3,4-oxadiazol-2(3H)-one]	< 4.30	6.00 to 7.00
